Data: patent US8871767B2, “2-arylimidazo[1,2-B]pyridazine, 2-phenylimidazo[1,2-A]pyridine, and 2-phenylimidazo[1,2-A]pyrazine derivatives” (Hengrui (USA) Ltd., priority 2010, dated 2014)
Read-outs that look alike come from different tables or passages of the source.

Key:
[1] = tested on: Hedgehog pathway activation (GLi-luciferase reporter) in Shh Light II reporter cells; test: Hedgehog pathway activation on Shh Light II reporter cells measured by luciferase activity; type: cell-based; conditions: Mus musculus, Shh Light II
Method in brief: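 Shh Light II reporter cells carrying a hedgehog-responsive GLi-luciferase reporter were stimulated either with 500 nM SAG, a direct Smoothened agonist, or with conditioned media containing human Sonic Hedgehog (hShh). Test compounds were evaluated for blocking this pathway activation, quantified by luciferase activity. Cell viability was monitored in parallel with the Celltiter-Blue® assay.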

[2] = tested on: Hedgehog pathway activation on 10T1/2/Smo#3 cells (C3H10T1/2 cells transfected with human Smoothened receptor); test: Hedgehog pathway activation on 10T1/2/Smo#3 cells measured by ALP activity; type: cell-based; conditions: Mus musculus, C3H 10T1/2, 10T1/2/Smo#3 cells
Method in brief: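 C3H10T1/2 cells stably expressing human Smoothened were activated with hShh-conditioned medium (10-20%) or 500 nM SAG, with test compounds present. Pathway block read as inhibited ALP activity (4-methylumbelliferyl phosphate fluorescence); viability checked by CellTiter-Blue. IC50 values reported.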

[3] = SAG activation (500 nM SAG), read-out: Shh Light II luciferase activity (SAG activation)
[4] = hShh activation, read-out: Shh (IC50, inhibition of Hedgehog pathway activation)
[5] = hShh activation, read-out: Shh Light II luciferase activity (hShh activation)
[6] = hShh activation, ALP activity, read-out: 10T1/2/Smo#3 ALP activity (hShh Activation)
[7] = measured by ALP activity, read-out: ALP (IC50, inhibition of Hedgehog pathway activation)

SMILES | IC50 [1, 3] [nM] | IC50 [1, 4] [nM] | IC50 [1, 5] [nM] | IC50 [2, 6] [nM] | IC50 [2, 7] [nM]
CC(C)(C)C(=O)Nc1cc(-c2cn3nc(-c4cc(C(F)(F)F)ccc4F)ccc3n2)ccc1C(F)(F)F [Example 207, N-(5-(6-(2-fluoro-5-(trifluoromethyl)phenyl)imidazo[1,2-b]pyridazin-2-yl)-2-(trifluoromethyl)phenyl)pivalamide] | < 300 | 43 | < 300 | < 300 | 43
CCN[C@@H]1CCN(c2ccc3nc(-c4ccc(C)c(NC(=O)C(C)(C)C)c4)cn3n2)C1 [Example 393, (R)-N-(5-(6-(3-(ethylamino)pyrrolidin-1-yl)imidazo[1,2-b]pyridazin-2-yl)-2-methylphenyl)pivalamide] | 300 to 3000 | 31 | < 300 | < 300 | 34
Cc1ccc(-c2cn3nc(N4CCN(Cc5ccc(F)cc5)CC4)ccc3n2)cc1NC(=O)C(C)(C)C [Example 123, N-(5-(6-(4-(4-fluorobenzyl)piperazin-1-yl)imidazo[1,2-b]pyridazin-2-yl)-2-methylphenyl)pivalamide] | 300 to 3000 | 712 | 300 to 3000 | 300 to 3000 | 488
CC(C)(C)C(=O)Nc1cc(-c2cn3nc(-c4ccc[nH]4)ccc3n2)ccc1C(F)(F)F [Example 179, N-(5-(6-(1H-pyrrol-2-yl)imidazo[1,2-b]pyridazin-2-yl)-2-(trifluoromethyl)phenyl)pivalamide] |  | 454 |  |  | 1440
CC(C)(C)C(=O)Nc1cc(-c2cn3cc(Cl)ncc3n2)ccc1C(F)(F)F [Example 85, N-(5-(6-chloroimidazo[1,2-a]pyrazin-2-yl)-2-(trifluoromethyl)phenyl)pivalamide] |  | 4390 |  |  | 1320
COc1ccc2nc(-c3cc(NC(=O)C(C)(C)C)ccc3Cl)cn2n1 [Example 115, N-(4-chloro-3-(6-methoxyimidazo[1,2-b]pyridazin-2-yl)phenyl)pivalamide] |  | 2870 |  |  | 2810
CC(C)c1ccc2nc(-c3ccc(C(F)(F)F)c(NC(=O)C(C)(C)C)c3)cn2n1 [Example 140, N-(5-(6-isopropylimidazo[1,2-b]pyridazin-2-yl)-2-(trifluoromethyl)phenyl)pivalamide] |  | 721 |  |  | 314
Cc1ccc(-c2cn3nc(-c4ncccc4C(F)(F)F)ccc3n2)cc1NC(=O)C(C)(C)C [Example 400, N-(2-methyl-5-(6-(3-(trifluoromethyl)pyridin-2-yl)imidazo[1,2-b]pyridazin-2-yl)phenyl)pivalamide] | < 300 | 11 | < 300 | < 300 | 39
CC(C)(C)C(=O)Nc1cc(-c2cn3nc(-c4nccs4)ccc3n2)ccc1C(F)(F)F [Example 148, N-(5-(6-(thiazol-2-yl)imidazo[1,2-b]pyridazin-2-yl)-2-(trifluoromethyl)phenyl)pivalamide] | 300 to 3000 | 608 | 300 to 3000 | 300 to 3000 | 1940
CCCCSc1ccc2nc(-c3ccc(C)c(NC(=O)C(C)(C)C)c3)cn2n1 [Example 124, N-(5-(6-(butylthio)imidazo[1,2-b]pyridazin-2-yl)-2-methylphenyl)pivalamide] | 300 to 3000 | 895 | 300 to 3000 | 300 to 3000 | 604
CC(C)(C)C(=O)Nc1cc(-c2cn3nc(N4CCSCC4)ccc3n2)ccc1C(F)(F)F [Example 355, N-(5-(6-thiomorpholinoimidazo[1,2-b]pyridazin-2-yl)-2-(trifluoromethyl)phenyl)pivalamide] |  | 142 |  |  | 240
O=C(Nc1cc(-c2cn3nc(-c4cccnc4C(F)(F)F)ccc3n2)ccc1F)N1CCCC1 [Example 686, N-(2-fluoro-5-(6-(2-(trifluoromethyl)pyridin-3-yl)imidazo[1,2-b]pyridazin-2-yl)phenyl)pyrrolidine-1-carboxamide] |  | 149 |  |  | 218
CC(C)(C)C(=O)Nc1cc(-c2cn3nc(N4CCC(F)(F)CC4)ccc3n2)ccc1C(F)(F)F [Example 235, N-(5-(6-(4,4-difluoropiperidin-1-yl)imidazo[1,2-b]pyridazin-2-yl)-2-(trifluoromethyl)phenyl)pivalamide] | 300 to 3000 | 318 | < 300 | < 300 | 271
CN(C)c1cccc(-c2ccc3nc(-c4ccc(C(F)(F)F)c(NC(=O)C(C)(C)C)c4)cn3n2)c1 [Example 256, N-(5-(6-(3-(dimethylamino)phenyl)imidazo[1,2-b]pyridazin-2-yl)-2-(trifluoromethyl)phenyl)pivalamide] |  | 1140 |  |  | 446
CCc1ccc(-c2cn3nc(-c4cccnc4C(F)(F)F)ccc3n2)cc1NC(=O)C1CCCC1 [Example 688, N-(2-ethyl-5-(6-(2-(trifluoromethyl)pyridin-3-yl)imidazo[1,2-b]pyridazin-2-yl)phenyl)cyclopentanecarboxamide] |  | 103 |  |  | 578
Cc1ccc(-c2cn3nc(-c4ccc(C(=N)N)cc4C(F)(F)F)ccc3n2)cc1NC(=O)C(C)(C)C [compound 543, N-(5-(6-(4-carbamimidoyl-2-(trifluoromethyl)phenyl)imidazo[1,2-b]pyridazin-2-yl)-2-methylphenyl)pivalamide] |  | 4 |  |  | 7
COc1ccc2nc(-c3ccc(OC(F)(F)F)c(NC(=O)C(C)(C)C)c3)cn2n1 [Example 247, N-(5-(6-methoxyimidazo[1,2-b]pyridazin-2-yl)-2-(trifluoromethoxy)phenyl)pivalamide] | < 300 |  | < 300 | < 300 | 1860
CCOC(=O)C=Cc1cccc(C(=O)Nc2ccc3nc(-c4ccc(C)c(NC(=O)C(C)(C)C)c4)cn3n2)c1 [compound 602] |  | 155 |  |  | 314
Cc1c(-c2ccccc2)nc2ccc(NC3CCN(Cc4ccccc4)CC3)nn12 [Example 168, N-(1-benzylpiperidin-4-yl)-3-methyl-2-phenylimidazo[1,2-b]pyridazin-6-amine] | 300 to 3000 | 1920 | 300 to 3000 | 300 to 3000 | 2980
Cc1ccc(-c2cn3nc(-c4cccnc4C(F)(F)F)ccc3n2)cc1C(=O)NC(C)(C)C [Example 483, N-tert-butyl-2-methyl-5-(6-(2-(trifluoromethyl)pyridin-3-yl)imidazo[1,2-b]pyridazin-2-yl)benzamide] | 300 to 3000 | 72 | < 300 | < 300 | 114
Cc1ccc(-c2cn3nc(N4CC[C@@H](N(C)C)C4)ccc3n2)cc1NC(=O)C(C)(C)C [Example 472, (R)-N-(5-(6-(3-(dimethylamino)pyrrolidin-1-yl)imidazo[1,2-b]pyridazin-2-yl)-2-methylphenyl)pivalamide] |  | 84 |  |  | 110
CCN(CC)C(=O)Nc1cc(-c2cn3nc(-c4cccnc4C(F)(F)F)ccc3n2)ccc1Cl [Example 655, 3-(2-chloro-5-(6-(2-(trifluoromethyl)pyridin-3-yl)imidazo[1,2-b]pyridazin-2-yl)phenyl)-1,1-diethylurea] | < 300 | 23 | < 300 | < 300 | 70
